pIC50: −log10 of the molar value.
How the values were obtained:
[1] = system: ACAT; assay: In vitro assay for the inhibition of ACAT activity; format: biochemical, rat; details: hepatic microsomes of cholesterol/cholic acid fed male CD rats, [14C]oleoyl-CoA incorporation
Experimental: (i) In vitro assay for the inhibition of ACAT activity
ACAT activity was determined as described By Ross et al by the incorporation of [^14 C]oleoyl-CoA into cholesterol [^14 C]oleate using hepatic microsomes as the source of both ACAT and cholesterol. Microsomes were prepared from the livers of male CD rats fed a 0.4% cholesterol/0.2% cholic acid diet 3.5 days before sacrifice. Various concentrations of a test compound were preincubated with a 0.5 mg/ml microsomal suspension and after 15 minutes a 50 μg aliquot was removed and incubated with 25 μM of [^14 C]-enriched oleoyl-CoA for 4 minutes. The reaction was terminated by the addition of 1 ml of ethanol and 4 ml of hexane. After shaking, the hexane layer was removed and evaporated to dryness. The hexane extract was then reconstituted in 150 μl of HPLC solvent and injected on to a B&J OD5 Reverse Phase C18 column using an isocratic mobile phase of acetonitrile: isopropanol:heptane (50:40:10) in 0.5% acetic acid at a flow rate of 1.0 ml/min. The product of the reaction, [^14 C]oleoyl cholesterol, was measured using a Flow One radiometric detector. The ACAT IC50 value for each compound was determined from a plot of % inhibition from control vs inhibitor concentration.

[2] = system: cholesterol-cholic acid fed rats; assay: Determination of hypolipdemic activity in cholesterol-cholic acid fed rats; format: in vivo, rat; details: serum on fourth day
Source text: (ii) Determination of hypolipdemic activity in cholesterol-cholic acid fed rats
Male Sprague-Dawley rats (CD, Charles River) each weighing 200-300 g were used. Hypercholesterolemia was induced in the rats by administration of a diet enriched to 0.4% cholesterol, 0.2% cholic acid. Prior to the adminstration of the diet, blood samples were collected under halothane anesthesia by cardiac puncture to determine baseline lipid levels. The blood was allowed to clot and serum was obtained for the analysis of total cholesterol, dextran-precipitable lipoproteins cholesterol (VLDL+LDL) and total triglycerides. The rats were divided into groups so that each group had similar average baseline serum lipid levels. Five days after the initial blood sampling, administration of each test compound and the cholesterol-cholic acid-enriched diet was begun. Compounds to be tested by gavage were administered b.i.d. in either 0.5% methyl cellulose or 5% sodium bicarbonate a 9:00 a.m. and 3:00 p.m. for three days and at 9:00 a.m. on the fourth day. Compounds administered as part of the diet were dissolved in ethanol and sprayed on to the diet. The ethonol was allowed to evaporate and the diet given to the rats for three days. On the fourth day, blood samples were collected and the final serum lipid levels determined. All blood samplings were taken after a four-hour fast.

pIC50 [1]	Structure (SMILES)	reduced LDL-cholestrol by ([2]; dose of 5 mg/kg)	reduced LDL-cholestrol by ([2]; dose of 25 mg/kg)	reduced LDL-cholestrol by ([2]; dose of 50 mg/kg)	reduced LDL-cholestrol by ([2]; dose of 0.5 mg/kg)	reduced LDL-cholestrol by ([2]; dose of 2 mg/kg)
5.47	CCCCCCCN(CCc1ccc(OC(C)(C)C(=O)O)cc1)C(=O)Nc1ccc(OC)cc1OC [Synthetic Example 2, 2-(4-{2-[3-(2,4-dimethoxyphenyl)-1-heptylureido]ethyl}phenoxy)-2-methylpropionic acid]	41-71%	61%			
5.35	CCCCCCCN(Cc1ccc(OC(C)(C)C(=O)O)cc1)C(=O)Nc1ccc(OC)cc1OC [Synthetic Example 1, 2-(4-{[3-(2,4-dimethoxyphenyl)-1-heptylureido]methyl}phenoxy)-2-methylpropionic acid]		55%	67%		
5.12	CCCCCCCN(CCc1ccc(OC(C)(C)C(=O)O)cc1)C(=O)Nc1ccc(F)cc1F [Synthetic Example 3, 2-(4-{2-[3-(2,4-difluorophenyl)-1-heptylureido]ethyl}phenoxy)-2-methypropionic acid]				90%	74%
